# Reference: patent US20040106838A1, “Use of ionic liquids to separate diolefins” (NOVA Chemicals (International) S.A., priority 2002, published 2004)
# Read-outs that look alike come from different tables or passages of the source.
# Key:
# [1] = C5 hydrocarbon solubility in bmim+ BF4− ionic liquid
# Method: The testing apparatus consisted of a flat-bottomed florence flask with a graduated neck. The flask was charged with 75 mL of bmim^+ BF4^−, the level being recorded. A known quantity of a C5 hydrocarbon was then added to the flask and the flask was sealed. The overall liquid level and the location of the liquid-liquid interfacial meniscus were recorded. The mixture was then agitated to contact the two liquids and the two phases were allowed to separate. The locations of all meniscuses were then recorded. Agitation and phase separation was then repeated until the liquid levels remained unchanged. The volume change of the hydrocarbon phase corresponds to the quantity of hydrocarbon dissolved in the ionic liquid. The testing was conducted at ambient temperature.
# [2] = Liquid-liquid extraction of butadiene from mixed C4 by bmim+ BF4− ionic liquid; format: physicochemical; settings: room temperature
# Text: The testing apparatus consists of three sample cylinders (150 cc, 10 cc, and 50 cc) connected by ⅜-inch tubing (in the order listed) with valves allowing for isolation of each cylinder. A gas syringe is used to take C4 samples for GC analysis. Various mixed C4S were used which contained varying quantities of 1,3-butadiene (ranging from 15-85 weight %). The composition range of the non-butadiene fraction of the standards was (in weight %) n-butane 29-33%, 1-butene 20-33%, isobutene 0-36%, trans-2-butene 7-17%, and cis-2-butene 5-17%.
# To measure C4 extraction, 40 mL of bmim^+ BF4^− absorbent is loaded into the 150 cc cylinder and the 10 cc and 150 cc cylinders are then evacuated. The 10 cc cylinder is then isolated and charged with mixed C4 liquid. This liquid is then added to the 150 cc cylinder. The 10 cc cylinder is then isolated and a second 10 cc is then added to the and subsequently added to the 150 cc cylinder and the 150 cc cylinder is isolated. The apparatus is then agitated to maximize contact between the C4 and ionic liquid phases within the 150 cc cylinder. Following agitation, the liquid is allowed to sit 12 hours to allow the two liquid phases to separate.
# To determine the level and composition of C4 in the ionic liquid, a 10 cc sample of ionic liquid from the 150 cc cylinder is charged into the 10 cc cylinder. The 150 cc cylinder is then isolated and the 10 cc ionic liquid sample is charged to the 50 cc cylinder, which is then isolated. The 50 cc cylinder is then heated and the gas syringe is used to collect C4 gas evolving from the ionic liquid. The collected gas is analyzed by GC.
# These pseudo-equilibrium extraction experiments conducted for different butadiene concentrations yielded enhanced concentrations of butadiene in the C4 extracted by the ionic liquid.
# [3] = in 1-butyl-3-methylimidazolium tetrafluoroborate (bmim+ BF4−), ambient temperature
# [4] = solubility in bmim+ BF4−, ambient temperature
compound,measurement,setting,value
"CC=C(C)C [2-Methyl-2-Butene, 2-methyl-2-butene]",Solubility (mol C5/L Ionic Liquid),[1]; [3],0.360 mol C5/L Ionic Liquid
same,Selectivity Over Isopentane,[1]; [4],10.6
"C=CC=C [Butadiene, 1,3-butadiene]",Butadiene Concentration in Extracted C4 (wt %),[2]; Butadiene Concentration in Feed 15 wt %,37.6 wt %
same,Butadiene Concentration in Extracted C4 (wt %),[2]; Butadiene Concentration in Feed 30 wt %,43.3 wt %
same,Butadiene Concentration in Extracted C4 (wt %),[2]; Butadiene Concentration in Feed 50 wt %,74.1 wt %
same,Butadiene Concentration in Extracted C4 (wt %),[2]; Butadiene Concentration in Feed 70 wt %,82.0 wt %
same,Butadiene Concentration in Extracted C4 (wt %),[2]; Butadiene Concentration in Feed 85 wt %,91.8 wt %
"C=CC(=C)C [Isoprene, isoprene]",Solubility (mol C5/L Ionic Liquid),[1]; [3],0.611 mol C5/L Ionic Liquid
same,Selectivity Over 2-Methyl-2-Butene,[1]; [4],1.7
same,Selectivity Over Isopentane,[1]; [4],18.0
"CCC(C)C [Isopentane, isopentane]",Solubility (mol C5/L Ionic Liquid),[1],0.034 mol C5/L Ionic Liquid
